A word on the EC50: it is the concentration needed to bring the measured effect to its halfway point. Broadly, the inhibition is the drop in the measured response relative to a control, in per cent.

Results on 1 molecule are retold here after ChEMBL document CHEMBL4842313, “Combating multi-drug resistant malaria parasite by inhibiting falcipain-2 and heme-polymerization: Artemisinin-peptidyl vinyl phosphonate hybrid molecules as new antimalarials” (Eur J Med Chem, 2021).

Active and inactive are the calls of the source. No cut-off for these calls is given here.

The subject of data set [1] is Plasmodium falciparum. The data set can be described thus: Antimalarial activity against laboratory adapted artemisinin-resistant Plasmodium falciparum RT4974 assessed as inhibition of the survival of ring-stage parasite measured after 66 hrs by ring survival assay. The format is functional, organism-based.
Data set [2] relates to Plasmodium berghei. The data set can be described thus: Antimalarial activity against blood stage of Plasmodium berghei infected in BALB/c mouse assessed as suppression of parasite growth at 12.5 mg/kg, ip administered once daily for 4 consecutive days measured on day 5 by Giemsa staining based assay. The conditions noted are these: time 5.0 day. The data set is classed as functional, organism-based.

The subject of data set [3] is Plasmodium falciparum. The experiment in a line: Antimalarial activity against chloroquine and pyrimethamine-resistant Plasmodium falciparum 7G8 assessed as parasite growth inhibition incubated for 48 hrs by SYBR green DNA fluorescent dye-binding assay. The format is functional, organism-based. The conditions noted are these: 7G8, 48 h.
The test system of another data set is Cytochrome P450. The experiment in a line: Inhibition of CYP450 (unknown origin). The data set is classed as ADME, protein assay. The conditions noted are these: human.
Data set [4] has as its system Plasmodium berghei. The data set can be described thus: Antimalarial activity against blood stage of Plasmodium berghei infected in BALB/c mouse assessed as parasite clearance at 12.5 mg/kg, ip administered once daily for 4 consecutive days measured on day 10 by Giemsa staining based assay (reference value: 0%). The conditions noted are these: time 10 day. The data set is classed as functional.

Data set [5] relates to Plasmodium berghei. The data set can be described thus: Antimalarial activity against blood stage of Plasmodium berghei infected in BALB/c mouse assessed as mouse survival time at 12.5 mg/kg, ip administered once daily for 4 consecutive days (reference value: 12 to 15 days). The format is functional. The conditions noted are these: time 4 day.
The subject of data set [6] is Plasmodium falciparum. The experiment in a line: Antimalarial activity against asexual blood stage of Plasmodium falciparum assessed as darkly stained dead parasites at EC50 observed at 60 hrs post invasion. The data set is classed as functional, organism-based.
Data set [7] deals with Plasmodium falciparum. The experiment in a line: Antimalarial activity against asexual blood stage of Plasmodium falciparum assessed as abnormalities in food vacuole observed upto 60 hrs post invasion. The format is functional, organism-based. The conditions noted are these: time hrs <=60.
Data set [8] addresses T1, Heme ligase (Plasmodium falciparum (isolate 3D7)) (UniProt Q8IL04).
T1 sequence (whole entry): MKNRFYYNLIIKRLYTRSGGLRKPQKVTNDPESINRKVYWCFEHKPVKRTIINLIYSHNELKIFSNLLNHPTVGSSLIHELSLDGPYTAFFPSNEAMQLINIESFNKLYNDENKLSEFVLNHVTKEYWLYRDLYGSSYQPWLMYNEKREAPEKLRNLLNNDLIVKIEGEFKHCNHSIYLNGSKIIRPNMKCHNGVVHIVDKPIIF
The experiment in a line: Inhibition of recombinant Plasmodium falciparum heme detoxification protein expressed in Escherichia coli M15 assessed as reduction in hemozoin formation using heme as substrate measured after 3 hrs relative to control. The conditions noted are these: concentration not given here.

The next data set deals with A549. The data set can be described thus: Cytotoxicity against human A549 cells assessed as reduction in cell viability measured after 24 hrs by WST-1 assay. The format is cell-based. The conditions noted are these: A549, 24 h. (Tetrazolium assays rely on reduction of a dye to a coloured formazan, in cell work by metabolically active cells.)
Data set [9] concerns Plasmodium berghei. The experiment in a line: Antimalarial activity against blood stage of Plasmodium berghei infected in BALB/c mouse assessed as suppression of parasite growth at 12.5 mg/kg, ip administered once daily for 4 consecutive days measured on day 6 by Giemsa staining based assay. The format is functional, organism-based. The conditions noted are these: time 6.0 day.

Data set [10] deals with Plasmodium falciparum. The experiment in a line: Antimalarial activity against Plasmodium falciparum 3D7 assessed as parasite growth inhibition incubated for 48 hrs by SYBR green DNA fluorescent dye-binding assay. The format is functional, organism-based. The conditions noted are these: 3D7, 48 h.
The subject of data set [11] is Plasmodium falciparum. The data set can be described thus: Antimalarial activity against asexual blood stage of Plasmodium falciparum assessed as inhibition of mature schizonts development at EC50 observed at 48 hrs post invasion. The data set is classed as functional, organism-based.
A short description of data set [12]: Drug degradation in human plasma. The data set is classed as ADME, cell-free.
In data set [13] the test system is Plasmodium falciparum. The experiment in a line: Antimalarial activity against chloroquine, pyrimethamine and mefloquine-resistant Plasmodium falciparum Dd2 assessed as parasite growth inhibition incubated for 48 hrs by SYBR green DNA fluorescent dye-binding assay. The format is functional, organism-based. The conditions noted are these: Dd2, 48 h.

Regarding `CCOP(=O)(/C=C/C(NC(=O)[C@H](CC(C)C)NC(=O)[C@@H]1C[C@@H](O[C@H]2O[C@@H]3O[C@@]4(C)CC[C@H]5[C@H](C)CC[C@@H]([C@H]2C)[C@@]35OO4)CN1C(=O)OCc1ccccc1)c1ccccc1)OCC` (stereo not given in full), the outcome with Plasmodium falciparum [1], with Plasmodium falciparum [6], with Plasmodium falciparum [7], with Plasmodium berghei [9] and with Plasmodium falciparum [11] was Active. In addition, the outcome in the data set with Plasmodium berghei [2] was inactive. For the same molecule, the concentration giving a half-maximal response (EC50) is 1.2 nM in the data set with Plasmodium falciparum [3], 1280 nM with A549, 2.57 nM in the data set on Plasmodium falciparum [10] and 5.5 nM with Plasmodium falciparum [13]. For the same molecule, the “inhibition (INH)” value in the data set on Cytochrome P450 was “Active”. In addition, the Activity in the data set with Plasmodium berghei [4] stood at 100%. Besides, the Survival with Plasmodium berghei [5] is above 60 days. In [8], the inhibition turned out to be 90%. The Stabilty entry in data set [12] is “Unstable”.
